SMILES strings stand for the structures.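 96-well plates; 48 h exposure; 5 concentrations. Endpoints by linear interpolation between flanking doses. Not reached: highest tested concentration assigned. GI50 marks 50% less growth. At the TGI there is no net growth.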

This is an account of results in PubChem BioAssay (NCI).

Among the test systems are 786-0 renal; ACHN renal; HL-60(TB) leukemia; HOP-92 NSCLC; MALME-3M melanoma; OVCAR-4 ovarian; OVCAR-8 ovarian; RPMI-8226 leukemia; SR leukemia; CAKI-1 renal.
Common to all, as to assay: growth of human tumour cells (NCI), 48 h

`CC(=O)Oc1ccc(/C=N/NC(N)=S)nc1`: the GI50 in the assay with 786-0 renal is 3.53 µM; in the assay with ACHN renal, 3.49 µM; in the assay on HL-60(TB) leukemia, 1.74 µM; in the assay on HOP-92 NSCLC, 12.9 µM; in the assay on MALME-3M melanoma, 4.96 µM; in the assay with OVCAR-4 ovarian, 6.03 µM. In addition, the GI50 in the assay on OVCAR-8 ovarian is 2.85 µM; with RPMI-8226 leukemia, 9.43 µM; with SR leukemia it was 1.51 µM. The TGI is 16.1 µM with 786-0 renal; more than 100 µM with ACHN renal; 8.44 µM in the assay with HL-60(TB) leukemia; more than 100 µM with HOP-92 NSCLC; 43.5 µM with MALME-3M melanoma; more than 100 µM with OVCAR-4 ovarian. The TGI with OVCAR-8 ovarian, in the assay on RPMI-8226 leukemia and in the assay on SR leukemia was more than 100 µM throughout.
For `O=c1c2ccccc2oc2ccc(OCCCCCCN3CCCCCC3)cc12`, the GI50 is 1.9 µM in the assay with 786-0 renal; 3.68 µM in the assay on ACHN renal; 1.84 µM in the assay on HL-60(TB) leukemia; 4.29 µM with HOP-92 NSCLC; 1.93 µM in the assay with MALME-3M melanoma; 3.03 µM in the assay with OVCAR-4 ovarian. The GI50 is 4.66 µM with OVCAR-8 ovarian, 2.24 µM in the assay on RPMI-8226 leukemia and 1.95 µM with SR leukemia. In addition, the TGI in the assay with 786-0 renal is 4.35 µM; in the assay on ACHN renal, 13.2 µM; in the assay with HL-60(TB) leukemia, 3.97 µM; in the assay on HOP-92 NSCLC, 20.7 µM; in the assay on MALME-3M melanoma, 3.68 µM; in the assay with OVCAR-4 ovarian, 16.7 µM. The TGI stood at 17.9 µM with OVCAR-8 ovarian, 5.78 µM in the assay on RPMI-8226 leukemia and 4.93 µM with SR leukemia.
Take `CC1(C)CC[C@]2(C(N)=O)CC[C@]3(C)C(=CC[C@@H]4[C@@]5(C)C/C(=C/c6ccncc6)C(=O)C(C)(C)[C@@H]5CC[C@]43C)[C@@H]2C1`: the GI50 was 2.25 µM with 786-0 renal; 2.02 µM in the assay with ACHN renal; 1.98 µM with HL-60(TB) leukemia; 1.76 µM with HOP-92 NSCLC; 1.71 µM in the assay with MALME-3M melanoma; 3 µM in the assay with OVCAR-4 ovarian. Further, the GI50 is 3.2 µM in the assay on OVCAR-8 ovarian, 1.73 µM in the assay on RPMI-8226 leukemia and 2.18 µM with SR leukemia. Besides, the TGI in the assay on 786-0 renal was 7.62 µM; with ACHN renal, 4.33 µM; in the assay with HL-60(TB) leukemia, 4.59 µM; in the assay on HOP-92 NSCLC it was 4.77 µM; with MALME-3M melanoma it was 3.27 µM; in the assay with OVCAR-4 ovarian, more than 100 µM. In addition, the TGI with OVCAR-8 ovarian is more than 100 µM; with RPMI-8226 leukemia it was 4.44 µM; in the assay with SR leukemia, 6.5 µM.
Consider `Cc1ccc(NC(=O)CC(=O)N2N=C(N(CCC#N)c3cccc(C)c3)CC2c2ccccc2)cc1` (stereo not given), for which the TGI in the assay on 786-0 renal, with ACHN renal, in the assay with HL-60(TB) leukemia, in the assay with HOP-92 NSCLC, in the assay with MALME-3M melanoma and in the assay with OVCAR-4 ovarian was more than 100 µM throughout. In addition, the TGI in the assay on OVCAR-8 ovarian, in the assay on RPMI-8226 leukemia and with SR leukemia was more than 100 µM each time.
For the compound `COc1cc2c(c(OC)c1OC)-c1ccc(SC)c(=O)cc1[C@@H](NC(=O)c1ccc(Cl)cc1)CC2`, the TGI is 15.8 µM in the assay with 786-0 renal; more than 100 µM in the assay with ACHN renal; less than 0.01 µM in the assay on HL-60(TB) leukemia; 5.03 µM with MALME-3M melanoma; more than 100 µM with OVCAR-4 ovarian; more than 100 µM in the assay with OVCAR-8 ovarian. Also, the TGI in the assay on RPMI-8226 leukemia is 95.3 µM; in the assay with SR leukemia, more than 100 µM.
With `CCCCCCCCCCCCOP(N)(=O)OCCCCCCCCCCCC`, the TGI with 786-0 renal, in the assay with ACHN renal, in the assay on HL-60(TB) leukemia, with MALME-3M melanoma, with OVCAR-8 ovarian and in the assay with RPMI-8226 leukemia was more than 100 µM each time. The TGI in the assay with SR leukemia was more than 100 µM.
With `C[C@@H]1C[C@]2(C[C@@H](C)C3[C@@H](CC4(C)[C@@H]5CCC6C(C)(C)OC(=O)C=C[C@]67C[C@@]5(CC[C@]34C)OO7)O2)OC1=O` (stereo not given in full), the TGI in the assay on 786-0 renal is more than 100 µM; in the assay with ACHN renal it was more than 100 µM; in the assay on HL-60(TB) leukemia, more than 100 µM; with MALME-3M melanoma, more than 100 µM; with OVCAR-4 ovarian it was 64.4 µM; in the assay on OVCAR-8 ovarian, more than 100 µM. The TGI in the assay with RPMI-8226 leukemia and in the assay with SR leukemia was more than 100 µM each time.
For `COC(=O)CC(C(C(C)=O)C(=O)OCc1ccccc1)N1C(=O)OCC1c1ccccc1` (stereo not given), the TGI with 786-0 renal, in the assay on ACHN renal, in the assay with HL-60(TB) leukemia, with MALME-3M melanoma, with OVCAR-4 ovarian and with OVCAR-8 ovarian was more than 100 µM throughout. For the same compound, the TGI in the assay on RPMI-8226 leukemia and in the assay with SR leukemia was more than 100 µM in each case.
Take `CC(=O)OC1CC2C(=O)C(=O)C1(C)C2(C)C` (stereo not given): the TGI in the assay with 786-0 renal, in the assay on ACHN renal, with HOP-92 NSCLC, in the assay on MALME-3M melanoma, in the assay with OVCAR-4 ovarian and in the assay with OVCAR-8 ovarian was more than 100 µM each time. In addition, the TGI in the assay on RPMI-8226 leukemia and in the assay on SR leukemia was more than 100 µM each time.
With `CCOC(=O)[C@H]1Nc2ccccc2C2c3ccccc3CC21` (stereo not given in full), the TGI in the assay with 786-0 renal, in the assay on ACHN renal, in the assay with CAKI-1 renal, in the assay with MALME-3M melanoma, with OVCAR-4 ovarian and in the assay with OVCAR-8 ovarian was more than 100 µM in each case. The TGI with RPMI-8226 leukemia and in the assay on SR leukemia was more than 100 µM each time.
